Residues, ends and D or L forms follow the SMILES beside them. *: point of attachment. Cbz = O=C(OCc1ccccc1)*
Tests used:
[1] = target: T1, proteasome (post-glutamic hydrolase activity) of MNT1 cells (Homo sapiens, UniProt P28072); assay: Proteasome LLE (post-glutamic hydrolase) activity assay on lyzates of treated MNT1 cells; format: cell-based; settings: for post-glutamic hydrolase peptidase activity of the proteasome, change in words: 72 hours after addition, MNT-1 melanocytes, FIG. 1B; for Proteasome activity at 72 hours, Post-glutamic hydrolase: MNT1 cells lyzed 72 hours after treatment, palmitic or linoleic acid 25 μM, Phaeodactylum 5 μg/ml, Mg132 120 nM where stated
T1 construct: introduce in duplicate a fixed volume of cell lyzate; endogenous in cells; host or cells: MNT1 human melanocyte line (lysate)
T1 sequence (P28072 1-239): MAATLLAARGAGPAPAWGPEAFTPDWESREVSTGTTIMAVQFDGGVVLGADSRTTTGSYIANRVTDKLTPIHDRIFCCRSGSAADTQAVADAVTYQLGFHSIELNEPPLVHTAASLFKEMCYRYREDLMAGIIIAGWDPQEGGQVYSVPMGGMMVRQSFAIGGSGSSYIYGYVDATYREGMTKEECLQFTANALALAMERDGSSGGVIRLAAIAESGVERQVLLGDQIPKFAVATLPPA
Experimental: 2.1 Treatment of MNT1 Cells (Human Melanocyte Cell Lines) in Order to Assay the Proteasome and Tyrosinase Activities
MNT1, 10^6 cells/dish 35 mm in diameter, in triplicate
Treatment on D1 • Linoleic acid 25 μM • Palmitic acid 25 μM • Phaeodactylum 5 μg/ml
+1% BSA+Vitamin E 50 μM+Vitamin C 1 mM • Linoleic acid 25 μM • Palmitic acid 25 μM • Phaeodactylum 5 μg/ml
Stirring with a magnetic bar at 37° C. for 1 hour • 2nd treatment on D4
+Cycloheximide 1 μg/ml (protein synthesis inhibitor)
+120 nM Mg132 for the assay of the tyrosinase activity. • Preparation of the lyzates after 4 hours
2 rinses with PBS (phosphate-buffered saline)
(§1) On a bed of ice; recovery in 150 μl of lysis buffer by scraping.
Freezing at ±20° C. • Protein assay via the Bradford method • Proteasome activity assay
(§2) The cells are rinsed twice with PBS and each peptidase activity of the proteasome is then determined by using a fluorogenic peptide substrate specific for each of the activities, in the presence and in the absence of a specific proteasome inhibitor, MG 132 (Leu-Leu-Leucinal). The peptide substrate products are the following: Leu-Leu-Val-Tyr-amc (LLVY-amc) for the chymotrypsin-like activity, Leu-Leu-Glu-na (LLE-na) for the post-glutamic hydrolase activity and Leu-Ser-Thr-Arg-amc (LSTR-amc) for the trypsin-like activity. The principle of the assay consists in monitoring over time the increase in fluorescence due to the release of the fluorophores aminomethylcoumarin or β-naphthylamine from the fluorogenic peptides.
b)—LLE Activity (Post-Glutamic Hydrolase)
The following cleavage reaction is studied: • Proteasome (LLE activity • (post-glutamic hydrolase) N-CBZ-LLE-NA→N-CBZ-LLE-+NA fluorescent
Reading on a spectrofluorimeter at an excitation wavelength of 333 nm and an emission wavelength of 410 nm.
The process is performed as follows: • In a 96-well plate, introduce in duplicate a fixed volume of cell lyzate (determined from the lowest protein concentration of the samples, which should correspond to 20 μg of protein) and make up to 100 μl with TRIS buffer. • Add 100 μl of LLE-NA substrate prediluted to 300 μM in the TRIS buffer (150 μM final). • Take the spectrofluorimeter readings at an excitation wavelength of 340 nm and an emission wavelength of 410 nm at a gain of 83 every 2 minutes, for 35 minutes.
The raw results are expressed in F.U./min.
(§3) The assay is performed on 200 μl of reaction volume containing a volume V of cell lyzate set as a function of the protein concentrations of the lyzates.
From the calibration range, the activity may be expressed in pmol of MCA released/minute/mg of protein:
(§4) For the assay of the proteasome activities, the cells were lyzed at 72 hours after the cell treatment, and the protein concentration was determined.

[2] = target: T2, proteasome (chymotrypsin-like activity) of MNT1 cells (Homo sapiens, UniProt P28074); assay: Proteasome LLVY (chymotrypsin-like) activity assay on lyzates of treated MNT1 cells; format: cell-based; settings: for chymotrypsin-like peptidase activity of the proteasome, change in words: 72 hours after addition, MNT-1 melanocytes, FIG. 1A; for Proteasome activity at 72 hours, Chymotrypsin-like: MNT1 cells lyzed 72 hours after treatment, palmitic or linoleic acid 25 μM, Phaeodactylum 5 μg/ml, Mg132 120 nM where stated
T2 construct: introduce in duplicate a fixed volume of cell lyzate; endogenous in cells; host or cells: MNT1 human melanocyte line (lysate)
T2 sequence (P28074 60-263): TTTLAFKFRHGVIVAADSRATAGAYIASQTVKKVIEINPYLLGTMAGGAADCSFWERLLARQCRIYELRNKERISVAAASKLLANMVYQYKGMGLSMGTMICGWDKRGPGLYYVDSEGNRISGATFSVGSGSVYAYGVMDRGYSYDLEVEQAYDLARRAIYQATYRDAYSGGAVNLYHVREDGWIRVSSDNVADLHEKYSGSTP
Experimental: 2.1 Treatment of MNT1 Cells (Human Melanocyte Cell Lines) in Order to Assay the Proteasome and Tyrosinase Activities MNT1, 10^6 cells/dish 35 mm in diameter, in triplicate
Treatment on D1 • Linoleic acid 25 μM • Palmitic acid 25 μM • Phaeodactylum 5 μg/ml +1% BSA+Vitamin E 50 μM+Vitamin C 1 mM • Linoleic acid 25 μM • Palmitic acid 25 μM • Phaeodactylum 5 μg/ml Stirring with a magnetic bar at 37° C. for 1 hour • 2nd treatment on D4 +Cycloheximide 1 μg/ml (protein synthesis inhibitor)
+120 nM Mg132 for the assay of the tyrosinase activity. • Preparation of the lyzates after 4 hours 2 rinses with PBS (phosphate-buffered saline)
as §1
as §2, with “Freezing at […]. • Protein assay via the Bradford method • Proteasome activity assay The cells” for “The cells”, “fluorogenic peptides. […]” for “fluorogenic peptides.”
a) LLVY activity (chymotrypsin-like) a.1—Principle • Proteasome (LLVY activity • (chymotrypsin-like)) N-Succinyl-LLVY-MCA→N-Succinyl-LLVY+MCA fluorescent Reading with a spectrofluorimeter at an excitation wavelength of 350 nm and an emission wavelength of 440 nm.
The process is performed as follows: • Into a 96-well plate, introduce in duplicate a fixed volume of cell lyzate (determined from the lowest protein concentration of the samples, which should correspond to 20 μg of protein) and make up to 100 μl with TRIS buffer. • Add 100 μl of LLVY-MCA substrate prediluted to 25 μM in the TRIS buffer (12.5 μM final). • take the spectrofluorimeter readings at an excitation wavelength of 355 nm and an emission wavelength of 460 nm with a gain of 40, every 2 minutes for 30 minutes.
The raw results are expressed in F.U./minute, F.U. denoting the values supplied by the machine, expressed in fluorescence units.
as §3
From the calibration range, the activity may be expressed as follows, in pmol of MCA released/minute/mg of protein: […]
as §4

| post-glutamic hydrolase peptidase activity of the proteasome, change in words [1] | Proteasome activity at 72 hours, Post-glutamic hydrolase [1] [nmol/min/mg] | chymotrypsin-like peptidase activity of the proteasome, change in words [2] | Proteasome activity at 72 hours, Chymotrypsin-like [2] [pmol/min/mg] | SMILES |
| --- | --- | --- | --- | --- |
| increase and do so significantly | 78 ± 3.6 | increase and do so significantly | 6.3 ± 0.37 | CCCCC/C=C\C/C=C\CCCCCCCC(=O)O [Linoleic acid] |
| – | 42 ± 5 | – | 3 ± 0.3 | CC(C)C[C@@H](C=O)NC(=O)[C@H](CC(C)C)NC(=O)[C@H](CC(C)C)NC(=O)OCc1ccccc1 [Control + Mg132, Z-Leu-Leu-Leu-CHO] (Cbz-Leu-Leu-Leu-aldehyde) |
| reduced | 54 ± 6 | reduced | 3 ± 0.37 | CCCCCCCCCCCCCCCC(=O)O [Palmitic acid] |
